{
  "source": "patent US12357591B2",
  "about": "(Nova Southeastern University, priority 2018, dated 2025)",
  "key": {"[1]": {"test": "pH of 2 mL water as diffusion medium with pH-modifying excipients", "type": "physicochemical"}, "in vitro [2]": {"test": "in vitro", "protocol": "The volunteer was asked not to eat or drink any acidic, alkaline, or spicy food or beverages and to rinse their mouth before the collection of saliva. The saliva was collected into an ice-bathed beaker and then degased to remove air bubbles and then filtered through 0.45 μm membrane.\nAliquot samples were withdrawn at specific time intervals including 2, 4, 6, 10, 15, and 30 min."}, "[3]": {"test": "Epinephrine permeability with alkalizing agent and penetration enhancer, Franz cells", "type": "in vitro ADME, porcine", "protocol": "EpiBit solution with penetration enhancer and alkalizing agent was added to the donor chamber."}, "in vitro [4]": {"test": "in vitro", "details": "for Papp at 90 min, 10 mg/mL: pig", "protocol": "Frozen pig's heads were obtained from local abattoir. Then, they were defrosted at room temperature. The porcine mucosa were excised by dissecting the sublingual mucosa and removing the underlying connective tissue using a scalpel and fine tweezers using established surgical techniques. The excised mucosa were frozen on aluminum foil at −20° C. until used (<4 weeks).\nThe sublingual mucosa (floor of the mouth) excised from pigs were used as the diffusion membranes. Mcvilian buffer at various pH was used in the donor cell as a diffusion medium.\nBefore each experiment, the mucosal membranes were defrosted at room temperature and mounted between the donor and receptor chambers and clamped using a metal clamp. The receptor chamber that has a magnetic stirrer was filled with the diffusion medium before mounting the membranes and air bubbles were removed after mounting the membranes and before the experiment. The water bath was set at 37° C. for the circulating water in the jacketed Franz Cells. The mounted membranes were equilibrated with the diffusion medium for 30 min from both sides before the experiment and were checked for any leaks.\nAliquots were withdrawn from the receptor chamber using 6 inch-long needles (Popper & Sons. Inc, New Hyde Park, NYC) and 1 mL syringes at 5, 10, 15, 20, 30, 45, 60, 75, and 90 min. The withdrawn volumes were replaced with fresh medium.\nSamples were transferred to HPLC vials for HPLC analysis according to USP Method."}, "[5]": {"details": "between pH 4 to 5, first 2 min", "experimental": "Aliquot samples were withdrawn at specific time intervals including 2 (maximum expected time for sublingual administration), 4, 6, 10, 15, and 30 min."}, "[6]": {"details": "cited from earlier work"}, "[7]": {"details": "1.125% (w/v) in 2 mL water, With Epi (20 mg)"}, "[8]": {"details": "1.125% (w/v) in 2 mL water, Without Epi"}, "[9]": {"details": "1.875% (w/v) in 2 mL water, With Epi (20 mg)"}, "[10]": {"details": "1.875% (w/v) in 2 mL water, Without Epi"}},
  "data": [
    {"compound": "O=C([O-])O.[Na+]", "note": "[Na Bicarbonate, sodium bicarbonate]", "values": [
      {"measurement": "pH Reading", "setting": "[1]; [7]", "value": "7.9 ± 0.1"},
      {"measurement": "pH Reading", "setting": "[1]; [8]", "value": "8.9 ± 0.1"},
      {"measurement": "pH Reading", "setting": "[1]; [9]", "value": "7.7 ± 0.0"},
      {"measurement": "pH Reading", "setting": "[1]; [10]", "value": "8.5 ± 0.1"},
      {"measurement": "pH Reading", "setting": "[1]; 2.25% (w/v) in 2 mL water, With Epi (20 mg)", "value": "7.9 ± 0.1"},
      {"measurement": "pH Reading", "setting": "[1]; 2.25% (w/v) in 2 mL water, Without Epi", "value": "8.6 ± 0.1"}
    ]},
    {"compound": "Na Citrate", "values": [
      {"measurement": "pH Reading", "setting": "[1]; [7]", "value": "5.0 ± 0.1"},
      {"measurement": "pH Reading", "setting": "[1]; [8]", "value": "9.4 ± 0.1"},
      {"measurement": "pH Reading", "setting": "[1]; [9]", "value": "7.1 ± 0.1"},
      {"measurement": "pH Reading", "setting": "[1]; [10]", "value": "9.8 ± 0.1"}
    ]},
    {"compound": "CNC[C@H](O)c1ccc(O)c(O)c1", "note": "[Epi, Epinephrine]", "values": [
      {"measurement": "recovery at 0 min, 5 mg/mL", "setting": "in vitro [2]; male, human, human saliva", "value": "100 ± 0.2", "unit": "%"},
      {"measurement": "recovery at 2 min, 5 mg/mL", "setting": "in vitro [2]; male, human, human saliva", "value": "96 ± 0.2", "unit": "%"},
      {"measurement": "recovery at 4 min, 5 mg/mL", "setting": "in vitro [2]; male, human, human saliva", "value": "96 ± 0.2", "unit": "%"},
      {"measurement": "recovery at 6 min, 5 mg/mL", "setting": "in vitro [2]; male, human, human saliva", "value": "95 ± 0.1", "unit": "%"},
      {"measurement": "recovery at 10 min, 5 mg/mL", "setting": "in vitro [2]; male, human, human saliva", "value": "95 ± 0.2", "unit": "%"},
      {"measurement": "recovery at 15 min, 5 mg/mL", "setting": "in vitro [2]; male, human, human saliva", "value": "92 ± 0.2", "unit": "%"},
      {"measurement": "recovery at 30 min, 5 mg/mL", "setting": "in vitro [2]; male, human, human saliva", "value": 84, "unit": "%"},
      {"measurement": "stability of Epi in human saliva", "setting": "in vitro [2]; saliva pH and up to pH 8", "value": "stable in human saliva (saliva pH and up to pH 8) for sufficient time to allow for sublingual drug administration"},
      {"measurement": "enhancement of Epi sublingual permeability", "setting": "[3]; alkalizing agent (pH of diffusion medium around 8) with permeation enhancer like SDS", "value": "about 25 fold"},
      {"measurement": "enhancement of Epi sublingual permeability", "setting": "[3]; alkalizing agent or permeation enhancer, each one alone", "value": "10- to 11 fold"},
      {"measurement": "AUC0-90 min", "setting": "in vitro [4]; pH 5", "value": "5169 ± 255", "unit": "μg/cm^2/ min"},
      {"measurement": "J (influx)", "setting": "in vitro [4]; pH 5", "value": "0.4 ± 0.1", "unit": "μg/cm^2/min"},
      {"measurement": "AUC0-90 min", "setting": "in vitro [4]; pH 6", "value": "6191 ± 756", "unit": "μg/cm^2/ min"},
      {"measurement": "J (influx)", "setting": "in vitro [4]; pH 6", "value": "0.8 ± 0.2", "unit": "μg/cm^2/min"},
      {"measurement": "AUC0-90 min", "setting": "in vitro [4]; pH 6.8", "value": "46562 ± 3450", "unit": "μg/cm^2/ min"},
      {"measurement": "J (influx)", "setting": "in vitro [4]; pH 6.8", "value": "2.8 ± 0.2", "unit": "μg/cm^2/min"},
      {"measurement": "AUC0-90 min", "setting": "in vitro [4]; pH 7.4", "value": "60099 ± 6576", "unit": "μg/cm^2/ min"},
      {"measurement": "J (influx)", "setting": "in vitro [4]; pH 7.4", "value": "5.3 ± 0.2", "unit": "μg/cm^2/min"},
      {"measurement": "AUC0-90 min", "setting": "in vitro [4]; pH 8", "value": "135689 ± 439", "unit": "μg/cm^2/ min"},
      {"measurement": "J (influx)", "setting": "in vitro [4]; pH 8", "value": "30.9 ± 0.4", "unit": "μg/cm^2/min"},
      {"measurement": "increase of Epi sublingual permeability", "setting": "in vitro [4]; pH 8 compared to pH 6.8", "value": "about 11 fold"},
      {"measurement": "Papp at 90 min, 10 mg/mL", "setting": "in vitro [4]; pH 5", "value": 333, "unit": "×10⁻⁶ cm/s"},
      {"measurement": "Papp at 90 min, 10 mg/mL", "setting": "in vitro [4]; pH 6", "value": 667, "unit": "×10⁻⁶ cm/s"},
      {"measurement": "Papp at 90 min, 10 mg/mL", "setting": "in vitro [4]; pH 6.8", "value": 2330, "unit": "×10⁻⁶ cm/s"},
      {"measurement": "Papp at 90 min, 10 mg/mL", "setting": "in vitro [4]; pH 7.4", "value": 4330, "unit": "×10⁻⁶ cm/s"},
      {"measurement": "Epi loss", "setting": "[5]", "value": "10-17%"},
      {"measurement": "optimal pH values for the stability of Epi in aqueous solution", "setting": "[6]", "value": "3.0-3.8"}
    ]}
  ]
}
